{"source": "the Deep4Chem optical property database", "assay": "solvent given as SMILES", "key": {"[1]": {"details": "in O=P(c1ccccc1)(c1ccccc1)c1ccccc1Oc1ccccc1P(=O)(c1ccccc1)c1ccccc1"}}, "note": "Values joined by “and” are separate entries in the source; they are usually repeats but may differ in a detail not shown here. Equal entries are not always repeated."}
{"smiles": "c1ccc2c(-n3cnc4ccccc43)cccc2c1", "values": [{"measurement": "fluorescence lifetime", "setting": "in C1CCCCC1", "result": 5.1, "unit": "ns"}, {"measurement": "fluorescence lifetime", "setting": "in CCOC(C)=O", "result": 4.6, "unit": "ns"}, {"measurement": "fluorescence lifetime", "setting": "in CO", "result": 4.3, "unit": "ns"}]}
{"smiles": "CC1(C)c2ccccc2N(c2cc[n+]3c(c2)-c2ccccc2O[B-]3(F)F)c2ccccc21", "values": [{"measurement": "fluorescence lifetime", "setting": "[1]", "result": 6.2, "unit": "ns"}]}
{"smiles": "Cn1c(-c2ccc(-c3nc(-c4ccccc4)c(-c4ccccc4)n3C)cc2)nc(-c2ccccc2)c1-c1ccccc1", "values": [{"measurement": "fluorescence lifetime", "setting": "in CC#N", "result": "1.24 ns and 1.1 ns"}]}
{"smiles": "CC1=CC(C)=[N+]2C1=C(c1ccc(I)cc1)c1c(C)cc(C)n1[B-]2(OCc1ccccc1)OCc1ccccc1", "values": [{"measurement": "fluorescence lifetime", "setting": "in ClC(Cl)Cl", "result": 3.94, "unit": "ns"}]}
{"smiles": "Nc1ccc2c(-c3ccccc3C(=O)[O-])c3ccc(=[NH2+])cc-3oc2c1", "values": [{"measurement": "fluorescence lifetime", "setting": "in CC#N", "result": 4.03, "unit": "ns"}, {"measurement": "fluorescence lifetime", "setting": "in CCO", "result": 4, "unit": "ns"}, {"measurement": "fluorescence lifetime", "setting": "in CN(C)C=O", "result": 3.68, "unit": "ns"}, {"measurement": "fluorescence lifetime", "setting": "in O", "result": 4.28, "unit": "ns"}]}
{"smiles": "CCN(CC)c1ccc2cc(-c3ccc(-c4ccc(-c5cc6ccc(N(CC)CC)cc6oc5=O)cc4)cc3)c(=O)oc2c1", "values": [{"measurement": "fluorescence lifetime", "setting": "in ClCCl", "result": 10.1, "unit": "ns"}]}
{"smiles": "CCCCC(CC)CN1C(=O)c2cc(Oc3ccc(OC)cc3)c3c4c(Oc5ccc(C(C)(C)C)cc5)cc5c6c(cc(Oc7ccc(C(C)(C)C)cc7)c(c7c(Oc8ccc(OC)cc8)cc(c2c37)C1=O)c64)C(=O)N(c1c(C(C)C)cccc1C(C)C)C5=O", "note": "(stereo unspecified)", "values": [{"measurement": "fluorescence lifetime", "setting": "in Cc1ccccc1", "result": 5.32, "unit": "ns"}]}
{"smiles": "Nc1ccc(N2C(=O)c3ccc4c5ccc6c7c(ccc(c8ccc(c3c48)C2=O)c75)C(=O)N(c2ccc(N)cc2)C6=O)cc1", "values": [{"measurement": "fluorescence lifetime", "setting": "in CN(C)C=O", "result": 3.8, "unit": "ns"}]}
{"smiles": "CCOC(=O)C(C(=O)OCC)C1=[N+]2C(=C(c3ccc(C)cc3)c3ccc(Cl)n3[B-]2(F)F)C=C1", "values": [{"measurement": "fluorescence lifetime", "setting": "in C1CCCCC1", "result": 2.69, "unit": "ns"}, {"measurement": "fluorescence lifetime", "setting": "in C1CCOC1", "result": 2.5, "unit": "ns"}, {"measurement": "fluorescence lifetime", "setting": "in CCOC(C)=O", "result": 2.31, "unit": "ns"}, {"measurement": "fluorescence lifetime", "setting": "in CO", "result": 2.02, "unit": "ns"}, {"measurement": "fluorescence lifetime", "setting": "in Cc1ccccc1", "result": 3.63, "unit": "ns"}, {"measurement": "fluorescence lifetime", "setting": "in ClC(Cl)Cl", "result": 3.67, "unit": "ns"}]}
{"smiles": "CC(=O)O[B-]1(OC(C)=O)OC(/C=C/c2cccc3ccccc23)=CC(/C=C/c2cccc3ccccc23)=[O+]1", "values": [{"measurement": "fluorescence lifetime", "setting": "in C1CCOC1", "result": 5.75, "unit": "ns"}, {"measurement": "fluorescence lifetime", "setting": "in CC#N", "result": 4.5, "unit": "ns"}, {"measurement": "fluorescence lifetime", "setting": "in CC(C)=O", "result": 4.67, "unit": "ns"}, {"measurement": "fluorescence lifetime", "setting": "in CS(C)=O", "result": 4.24, "unit": "ns"}, {"measurement": "fluorescence lifetime", "setting": "in Cc1ccccc1", "result": 5.13, "unit": "ns"}, {"measurement": "fluorescence lifetime", "setting": "in ClC(Cl)Cl", "result": 5.73, "unit": "ns"}, {"measurement": "fluorescence lifetime", "setting": "in ClCCl", "result": 5.99, "unit": "ns"}]}
{"smiles": "O=C1/C(=C2\\Sc3ccccc3C2=O)Sc2ccccc21", "values": [{"measurement": "fluorescence lifetime", "setting": "in C1COCCO1", "result": 12.4, "unit": "ns"}, {"measurement": "fluorescence lifetime", "setting": "in CN(C)C=O", "result": 6.9, "unit": "ns"}, {"measurement": "fluorescence lifetime", "setting": "in CO", "result": 0.68, "unit": "ns"}, {"measurement": "fluorescence lifetime", "setting": "in CS(C)=O", "result": 0.17, "unit": "ns"}, {"measurement": "fluorescence lifetime", "setting": "in c1ccccc1", "result": 12.2, "unit": "ns"}]}
{"smiles": "C/C=C/c1ccc(OC)cc1", "values": [{"measurement": "fluorescence lifetime", "setting": "in CC#N", "result": 8.7, "unit": "ns"}, {"measurement": "fluorescence lifetime", "setting": "in CCCCCC", "result": 7.9, "unit": "ns"}]}
{"smiles": "CCCCOc1ccc(/C=C/C=C/C=C/c2ccc([N+](=O)[O-])cc2)cc1", "values": [{"measurement": "fluorescence lifetime", "setting": "in Cc1ccccc1", "result": 1.7, "unit": "ns"}]}
{"smiles": "Cc1ccc(C2=C3C=CC(/C=C/c4ccccc4)=[N+]3[B-](F)(F)n3c(/C=C/c4ccccc4)ccc32)cc1", "values": [{"measurement": "fluorescence lifetime", "setting": "in C1CCCCC1", "result": 4.37, "unit": "ns"}, {"measurement": "fluorescence lifetime", "setting": "in C1CCOC1", "result": 4.09, "unit": "ns"}, {"measurement": "fluorescence lifetime", "setting": "in C1COCCO1", "result": 4.31, "unit": "ns"}, {"measurement": "fluorescence lifetime", "setting": "in CCOC(C)=O", "result": 4.77, "unit": "ns"}, {"measurement": "fluorescence lifetime", "setting": "in CO", "result": 4.54, "unit": "ns"}, {"measurement": "fluorescence lifetime", "setting": "in Cc1ccccc1", "result": 4.48, "unit": "ns"}, {"measurement": "fluorescence lifetime", "setting": "in ClC(Cl)Cl", "result": 4.63, "unit": "ns"}]}
{"smiles": "CN(C)c1ccc2c(-c3cc(C(=O)[O-])ccc3C(=O)[O-])c3ccc(=[N+](C)C)cc-3oc2c1", "values": [{"measurement": "fluorescence lifetime", "setting": "in CCO", "result": 3.3, "unit": "ns"}, {"measurement": "fluorescence lifetime", "setting": "in O", "result": 2.36, "unit": "ns"}]}
{"smiles": "C[Si]1(C)c2ccc(-c3ccc(N(c4ccccc4)c4ccccc4)cc3)cc2C=Cc2cc(-c3ccc(N(c4ccccc4)c4ccccc4)cc3)ccc21", "values": [{"measurement": "fluorescence lifetime", "setting": "in ClCCl", "result": 5.9, "unit": "ns"}]}
{"smiles": "CCC(=O)c1ccc2cc(N(C)C)ccc2c1", "values": [{"measurement": "fluorescence lifetime", "setting": "in C1CCCCC1", "result": 1.6, "unit": "ns"}, {"measurement": "fluorescence lifetime", "setting": "in C1CCOC1", "result": 3.58, "unit": "ns"}, {"measurement": "fluorescence lifetime", "setting": "in CC#N", "result": 3.96, "unit": "ns"}, {"measurement": "fluorescence lifetime", "setting": "in CCCCCC", "result": 0.29, "unit": "ns"}, {"measurement": "fluorescence lifetime", "setting": "in CCO", "result": 3.65, "unit": "ns"}, {"measurement": "fluorescence lifetime", "setting": "in CN(C)C=O", "result": 3.85, "unit": "ns"}, {"measurement": "fluorescence lifetime", "setting": "in CO", "result": 3.04, "unit": "ns"}, {"measurement": "fluorescence lifetime", "setting": "in CS(C)=O", "result": 3.12, "unit": "ns"}, {"measurement": "fluorescence lifetime", "setting": "in Cc1ccccc1", "result": 2.33, "unit": "ns"}, {"measurement": "fluorescence lifetime", "setting": "in ClC(Cl)Cl", "result": 3.09, "unit": "ns"}, {"measurement": "fluorescence lifetime", "setting": "in ClCCl", "result": 3.44, "unit": "ns"}, {"measurement": "fluorescence lifetime", "setting": "in O", "result": 2.1, "unit": "ns"}, {"measurement": "fluorescence lifetime", "setting": "in OCC(O)CO", "result": 3.8, "unit": "ns"}, {"measurement": "fluorescence lifetime", "setting": "in c1ccccc1", "result": 3.3, "unit": "ns"}]}
{"smiles": "Cc1ccc(-n2c(-c3ccccc3O)nc(-c3ccccc3O)c2-c2ccccc2O)cc1", "values": [{"measurement": "fluorescence lifetime", "setting": "in C1CCOC1", "result": 3.1, "unit": "ns"}, {"measurement": "fluorescence lifetime", "setting": "in CC(C)O", "result": 3.5, "unit": "ns"}, {"measurement": "fluorescence lifetime", "setting": "in CO", "result": 2.9, "unit": "ns"}, {"measurement": "fluorescence lifetime", "setting": "in CS(C)=O", "result": 3.7, "unit": "ns"}, {"measurement": "fluorescence lifetime", "setting": "in ClC(Cl)Cl", "result": 1.2, "unit": "ns"}, {"measurement": "fluorescence lifetime", "setting": "in ClCCl", "result": 1.4, "unit": "ns"}]}
{"smiles": "c1ccc(-c2nc(-c3ccccc3)nc(-c3ccc(-n4c5ccccc5c5c6c(ccc54)-c4ccccc4C6(c4ccccc4)c4ccccc4)cc3)n2)cc1", "values": [{"measurement": "fluorescence lifetime", "setting": "[1]", "result": 3.3, "unit": "ns"}]}
{"smiles": "[O-][n+]1c(-c2ccccc2)cc(N2CCOCC2)nc1/C=C/c1ccccc1", "values": [{"measurement": "fluorescence lifetime", "setting": "in ClCCl", "result": 4.76, "unit": "ns"}]}
